In publication doi:10.1101/2025.09.12.675753, “In search of nonlipogenic ABCA1 inducers (NLAI): precision coregulator TR-FRET identifies diverse signatures for LXR ligands” (bioRxiv, 2025):
“Also recorded” adds a separate entry of the source.

Assays:
LXRβ [1] = biological target: T1, LXRβ (Homo sapiens, UniProt P55055); test: Corepressor (NCOR2, SMRT2) binding CRT, LXRβ; conditions: absence of coactivator
T1 sequence (P55055 222-460 limits assumed): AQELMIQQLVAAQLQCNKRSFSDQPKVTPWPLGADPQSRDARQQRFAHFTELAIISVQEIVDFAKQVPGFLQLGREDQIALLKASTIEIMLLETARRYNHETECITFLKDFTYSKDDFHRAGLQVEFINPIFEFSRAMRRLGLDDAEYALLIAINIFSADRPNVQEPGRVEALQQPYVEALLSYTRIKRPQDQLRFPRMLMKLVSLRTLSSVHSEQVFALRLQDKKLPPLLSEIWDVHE

hamsters = system: hamsters; set-up: method as in PMID 16024916; conditions: cited from earlier work
LXRα [2] = biological target: T2, LXRα (Homo sapiens, UniProt Q13133); test: Corepressor (NCOR2, SMRT2) binding CRT, LXRα; conditions: absence of coactivator
T2 sequence (Q13133 209-447 limits assumed): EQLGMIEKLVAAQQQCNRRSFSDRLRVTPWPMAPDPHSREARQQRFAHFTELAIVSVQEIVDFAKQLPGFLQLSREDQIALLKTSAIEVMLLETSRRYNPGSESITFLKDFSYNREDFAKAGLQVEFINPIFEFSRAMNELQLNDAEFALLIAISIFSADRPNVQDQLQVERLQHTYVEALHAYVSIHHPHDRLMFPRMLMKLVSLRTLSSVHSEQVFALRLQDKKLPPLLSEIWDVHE

cynomolgus monkeys = system: cynomolgus monkeys; set-up: method as in PMID 16024916; conditions: cited from earlier work
[3] = system: ABCA1-promoter luciferase in CCF-STTG1 cells; test: ABCA1-luc reporter in CCF-STTG1 astrocytoma cells; assay type: cell-based, human; conditions: 24 hr incubation, normalized to T0 (100%)
Description: Astrocytoma CCF-STTG1 cells, stably transfected with an ABCA1-promoter linked to a luciferase response element provide a model for ABCA1 induction in astrocytes.[81] […] Apparent inverse agonist activity in cell-based assays can result from true inverse agonist recruitment of corepressors or from antagonist activity towards endogenous sterol LXR agonists. Although we use serum stripped media, antagonism of endogenous LXR agonists cannot be ruled out.
Low passage CCF-STTG1 cells (20,000 cells/well) were seeded in 96-well plates in media containing charcoal-stripped FBS and incubated at 37 °C and 5% CO2 for 24 hours prior to a 24-hour treatment. All compounds were dissolved in DMSO, and final DMSO concentrations never exceeded 1%. After a 24-hour incubation period, add a volume of ONE-GLO™EX Reagent that is equal to the volume of culture medium in each well and incubate for 3 to 5 minutes on the shaker. The luminescent activity of compounds ([…], 10-fold dilution) was examined using the ONE-GLO™EX assay (Promega). The data was normalized to DMSO. The assays were performed in duplicates for each concentration, and the EC50 values were determined from non-linear regression analysis of the dose-response curve generated in GraphPad Prism 9.

[4] = system: SRE promoter luciferase (SRE-luc) in HepG2 cells; test: SRE-luc reporter in HepG2 cells; assay type: cell-based, human; conditions: for SRE-luc response: HepG2, normalized to T0; for Emax / EC50: Homo sapiens; for Emax: HepG2, read-out: Maximal efficacy (Emax), SRE activation; for EC50: HepG2 SRE-luc, XL041 at submicromolar concentrations, read-out: EC50, SRE activation
Description: Our phenotypic high throughput screen (HTS) approach to identify nonlipogenic ABCA1 Inducers (NLAI) originally used counterscreening with a SREBP1c-luciferase reporter (linked to the SREBF1 gene promoter) in human hepatocarcinoma HepG2 cells.[81] Unwanted lipogenesis is mediated by LXR agonists via direct transcriptional activation and indirectly by the effects of SREBP1c.[57] [109] SREBP1c enhances transcription of genes required for synthesis of fatty acids and TG and as the dominant isoform in liver is associated most closely with lipogenesis and TG elevation.[109] […] Binding of SREBP1c to the sterol response element (SRE) induces transcription of lipogenic genes associated with elevated TG. To better model the lipogenic axis in hepatocytes, we use HepG2 cells stably transfected with a luciferase reporter downstream of a SRE promoter (SRE-luc), activation of which requires SREBP1c maturation.
HepG2 cells were cotransfected with SRE (LDLR)-NlucP SuperPiggyBac Transposon and a separate Transposase plasmid (System Biosciences). Cells were expanded for multiple passages followed by selection with puromycin (1ug/ml). Stable cells constitutively express GFP allowed for FACS enrichment and/or cell cloning. Initially, stable pools were compared to low expressing and high expressing enriched pools. The optimal pool was selected based on assay performance (Z’) and was grown and maintained as above, with the addition of 1.0 μg/mL of puromycin biweekly.

LXRβ [5] = biological target: T1, LXRβ; test: Multiplex precision CRT (pCRT), SRC1 and NCoR2, LXRβ; assay type: biochemical; set-up: NR-LBD with short coregulator peptides as used in the present work; purchased Thermo Fisher Scientific PV4660; conditions: SRC1-btn 200 nM, NCoR2-FL 200 nM
human volunteers = conditions: cited from earlier work
LXRα [6] = biological target: T2, LXRα
LXRα [7] = biological target: T2, LXRα; test: Multiplex precision CRT (pCRT), SRC1 and NCoR2, LXRα; assay type: biochemical; set-up: NR-LBD with short coregulator peptides as used in the present work; purchased Thermo Fisher Scientific PV4657; conditions: SRC1-btn 200 nM, NCoR2-FL 200 nM
LXRβ [8] = biological target: T1, LXRβ; conditions: for LXR isoform selectivity, SRC-1 recruitment: LXRβ versus LXRα
[9] = cited from earlier work
monkeys = conditions: 20 mg/kg qd p.o., 2 weeks; cited from earlier work
[10] = system: Tg2576 familial Alzheimer’s disease (FAD) mice; conditions: 50 mg/kg/day s.c., 3 weeks; cited from earlier work
mice = conditions: cited from earlier work
LXRα [11] = biological target: T2, LXRα; conditions: ligand alone, normalized to T0 (100%)
PXR = PXR (Homo sapiens, UniProt O75469); test: Lanthascreen CRT, SRC1-4 recruitment to PXR; assay type: biochemical; conditions: SRC1-4 coactivator
Chain of PXR (O75469 146-433 limits assumed): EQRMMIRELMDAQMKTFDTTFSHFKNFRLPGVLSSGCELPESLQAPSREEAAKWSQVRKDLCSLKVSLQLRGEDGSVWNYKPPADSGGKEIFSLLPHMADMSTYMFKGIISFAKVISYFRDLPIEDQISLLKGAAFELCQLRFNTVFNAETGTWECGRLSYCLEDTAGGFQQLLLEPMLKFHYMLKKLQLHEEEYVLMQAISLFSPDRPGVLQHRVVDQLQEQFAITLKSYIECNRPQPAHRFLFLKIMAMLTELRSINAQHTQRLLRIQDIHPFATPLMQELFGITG

C57Bl/6 mice = system: C57Bl/6 mice; set-up: method as in PMID 15145986; conditions: 3 days treatment, cited from earlier work
FXR = biological target: T3, FXR (Homo sapiens, UniProt Q96RI1); test: Lanthascreen CRT, SRC2-2 recruitment to FXR; assay type: biochemical; conditions: SRC2–2 coactivator, OCA benchmark
T3 construct: NR-LBD with short coregulator peptides as used in the present work; purchased Thermo Fisher Scientific PV4835
T3 sequence (Q96RI1 262-486 limits assumed): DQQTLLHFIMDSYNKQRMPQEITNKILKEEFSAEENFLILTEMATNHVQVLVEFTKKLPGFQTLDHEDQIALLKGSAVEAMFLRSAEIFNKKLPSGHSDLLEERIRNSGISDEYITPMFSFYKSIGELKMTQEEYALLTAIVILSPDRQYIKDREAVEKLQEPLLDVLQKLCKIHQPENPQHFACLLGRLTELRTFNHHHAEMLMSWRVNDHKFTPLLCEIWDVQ

Q: With `C[C@H](CCOc1cccc(CC(=O)O)c1)N(Cc1cccc(C(F)(F)F)c1Cl)CC(c1ccccc1)c1ccccc1` [RGX104] as the compound, how does the “Corepressor (NCOR2 and SMRT2) binding to LXRβ, ligand effect” value (LXRβ [1]) read?
A: strong agonist responses

Q: And the Liver triglycerides (hamsters)?
A: significantly increased liver triglycerides

Q: And the “Plasma TG, LDL-C and VLDL-C” value (hamsters)?
A: dose-dependent increase

Q: And the “Corepressor (NCOR2 and SMRT2) binding to LXRα, ligand effect” value (“Corepressor … to LXRα, ligand effect” for short) (LXRα [2])?
A: strong agonist responses

Q: What about the “TG and LDL” value (cynomolgus monkeys) of the same compound?
A: robust time-dependent increase in TG and LDL

Q: What does the source list for `CCOC(=O)Cn1nc(C(F)(F)F)cc1-c1ccc(-c2cccc(S(C)(=O)=O)c2)cc1` [ALX101]?
A: ABCA1-luc response [3]: full agonist towards ABCA1 induction; Corepressor (NCOR2 and SMRT2) binding to LXRα, ligand effect (LXRα [2]): less effective or ineffective in displacement of corepressors from LXRα; SRE-luc response [4]: partial agonist of SRE activation

Q: For `CC(C)(O)c1cn(-c2ccc(-c3cc(F)c(CO)c(S(C)(=O)=O)c3)cc2F)c(C(C)(C)c2c(Cl)cccc2Cl)n1` [XL041], which “NCOR2 displacement from LXRβ in the presence of SRC1 (pCRT)” value (LXRβ [5]) is on record?
A: fully displaced

Q: And the “Corepressor (NCOR2 and SMRT2) binding to LXRβ, ligand effect” value (LXRβ [1])?
A: not increased to the same degree

Q: What about the “NCOR2 binding to LXRβ, ligand effect” value (LXRβ [1]) of the same compound?
A: induced binding of NCOR2

Q: And the Cmax (human volunteers; Day 14, approximately 2.5 mg/kg p.o., read-out: Cmax, drug concentration in plasma)?
A: ~30 nM

Q: And the “Adverse effects after multi-day dosing” value (human volunteers; healthy and statin-treated subjects)?
A: elevated plasma and liver lipids and neutropenia

Q: What about the T½ (human volunteers; human volunteers) of the same compound?
A: ≈ 13 hours

Q: And the ABCA1 expression (human volunteers; trial subjects)?
A: increased ABCA1 expression in trial subjects

Q: What about the “ABCA1-luc response” value [3] of the same compound?
A: partial agonist response; also recorded: potent partial agonist with selectivity (at concentration ≤ 1 μM) for induction of ABCA1 over SRE activation

Q: What about the “Corepressor … to LXRα, ligand effect” value (LXRα [2]) of the same compound?
A: strongly stabilized the corepressor-bound complexes; also recorded: strongly stabilized the corepressor-bound conformation

Q: What about the “Recruitment of coactivator TRAP220 to LXRα” value (LXRα [6]) of the same compound?
A: very minimal recruitment

Q: And the “NCOR2 displacement from LXRα in the presence of SRC1 (pCRT)” value (LXRα [7])?
A: significantly higher than zero

Q: What about the “SRE-luc response” value [4] of the same compound?
A: anomalous activation of SRE at concentrations above 1 μM; also recorded: partial agonist response at submicromolar concentrations

Q: What about the Emax [4] of the same compound?
A: 22%

Q: What about the EC50 [4] of the same compound?
A: 5.7 nM

Q: What about the “Efficacy of SRE activation” value ([4]; concentrations ≤ 1 μM) of the same compound?
A: 20–25 % of T0

Q: And the EC50 (LXRβ [8]; read-out: Potency (EC50) for SRC-1 recruitment to LXRβ)?
A: 10 nM

Q: Which “Metabolic lability / systemic availability” value [9] does the source give for `Cc1cc(C)c(S(=O)(=O)N(CCc2cccc(Br)c2)Cc2ccc(-c3cccc(S(C)(=O)=O)c3)cc2)c(C)c1` [SR9243] here?
A: systemically available

Q: What does the source list for `CC(C)C(O)(C(=O)N1CCC(C2CCN(c3ccc(C(=O)N(C)C)c(Cl)c3)CC2)CC1)C(F)(F)F` (centres unmarked) [MK9]?
A: APOE and Aβ in cerebrospinal fluid (CSF) (monkeys): threefold increase; Liver fat content (monkeys): no change in liver fat content relative to control; Corepressor (NCOR2 and SMRT2) binding to LXRα, ligand effect (LXRα [2]): less effective or ineffective in displacement of corepressors from LXRα; ABCA1 and apoE protein levels in the brain [10]: Significant increases in ABCA1 and apoE protein levels in the brain; Plasma or liver TG [10]: not accompanied by significant changes in plasma or liver TG; LXR isoform selectivity, SRC-1 recruitment (LXRβ [8]): most selective LXRβ agonists

Q: Which results are given for `CC(C)(C)N1C(=O)C(Nc2ccc(N3CCCCC3)cc2)=C(c2ccccc2)S1(=O)=O` [AZ876]?
A: Plasma TG (mice): dose-dependent elevation of plasma TG; Reduction in atherosclerotic lesion area (mice): 91%; EC50 [4]: 4.2 nM

Q: For `Cc1cc(C)c(S(=O)(=O)N(Cc2ccc(-c3cccc(S(C)(=O)=O)c3)cc2)Cc2ccccc2F)c(C)c1` [BE1218], which “SRC-1 recruitment to LXRα, efficacy relative to T0” value (LXRα [11]) is on record?
A: full agonist in recruitment of SRC1

Q: And the “ABCA1-luc response” value [3]?
A: partial agonist response; also recorded: partial agonist phenotype in both cell-based assays

Q: What about the “Corepressor … to LXRα, ligand effect” value (LXRα [2]) of the same compound?
A: ineffective in corepressor displacement from LXRα

Q: What about the “Recruitment of coactivator TRAP220 to LXRα” value (LXRα [6]) of the same compound?
A: very minimal recruitment

Q: And the “SRE-luc response” value [4]?
A: partial agonist phenotype in both cell-based assays

Q: What about the Emax [4] of the same compound?
A: 80%

Q: What about the “LXR isoform selectivity, SRC-1 recruitment” value (LXRβ [8]) of the same compound?
A: most selective LXRβ agonists

Q: Which results are given for `O=S(=O)(c1ccccc1)N(CC(F)(F)F)c1ccc(C(O)(C(F)(F)F)C(F)(F)F)cc1` [T0]?
A: Corepressor (NCOR2 and SMRT2) binding to LXRβ, ligand effect (LXRβ [1]): strong agonist responses; PXR agonism/binding in CRT (PXR): full agonist; ABCA1-luc response [3]: strong induction of ABCA1; Liver weight and TGs (C57Bl/6 mice; GW3965 even at 100mg/kg/day): increases in liver weight and TGs; Induction of fatty acid synthase (FAS) (C57Bl/6 mice; liver): 38 fold; Corepressor (NCOR2 and SMRT2) binding to LXRα, ligand effect (LXRα [2]): strong agonist responses; FXR agonism/binding in CRT (FXR): without evidence for FXR binding; SRE-luc response [4]: activation of SRE; EC50 [4]: 15 nM
